Drawing on ChEMBL document CHEMBL3739362, “Brominated Variant of the Lantibiotic NAI-107 with Enhanced Antibacterial Potency” (2015), this text covers MIC for 1 compound.

Holding throughout (format): functional
Experiment [1] concerns Staphylococcus aureus. In words: Antibacterial activity against glycopeptide-intermediate Staphylococcus aureus L3797 by broth microdilution assay.
Experiment [2] deals with Staphylococcus aureus. The experiment is described as follows: Antibacterial activity against glycopeptide-intermediate Staphylococcus aureus L3798 by broth microdilution assay. (In broth dilution the organism is exposed to a series of concentrations in liquid medium.)
Experiment [3] concerns Streptococcus pneumoniae. The experiment is described as follows: Antibacterial activity against Streptococcus pneumoniae ATCC 49619 by broth microdilution assay.
Experiment [4] has as its system Streptococcus pneumoniae. In words: Antibacterial activity against Streptococcus pneumoniae L44 by broth microdilution assay.
The next experiment has as its system Streptococcus pyogenes. The experiment is described as follows: Antibacterial activity against Streptococcus pyogenes L49 by broth microdilution assay.
In experiment [5] the test system is Enterococcus faecalis. The experiment is described as follows: Antibacterial activity against Enterococcus faecalis L559 by broth microdilution assay.
Experiment [6] relates to Enterococcus faecalis. In words: Antibacterial activity against vancomycin-resistant Enterococcus faecalis L560 by broth microdilution assay.
A further experiment relates to Enterococcus faecium. In words: Antibacterial activity against vancomycin-resistant Enterococcus faecium L569 by broth microdilution assay.

In brackets after ≈: the same amount, converted by molar mass.

The term MIC denotes the lowest concentration found to suppress growth. Lower therefore signals a more susceptible organism. With `CN[C@@H](CC(C)C)C(=O)N[C@H]1C(=O)N[C@@H](CC(N)=O)C(=O)N[C@H]2C(=O)N[C@H]3C(=O)N[C@H](C(=O)N[C@@H](C(=O)O)c4cc(O)cc(O)c4-c4cc3ccc4O)[C@H](O)c3ccc(c(Cl)c3)Oc3cc2cc(c3O[C@H]2O[C@@H](CO)[C@H](O)[C@@H](O)[C@@H]2O[C@@H]2C[C@@](C)(N)[C@@H](O)[C@@H](C)O2)Oc2ccc(cc2Cl)[C@H]1O`, the MIC with Staphylococcus aureus [1] was 8 µg/mL (≈ 5.52 µM); against Staphylococcus aureus [2] it was 16 µg/mL (≈ 11 µM); against Streptococcus pneumoniae [3], 0.25 µg/mL (≈ 0.173 µM); in the experiment with Streptococcus pneumoniae [4], 0.5 µg/mL (≈ 0.345 µM); against Streptococcus pyogenes, 0.5 µg/mL (≈ 0.345 µM); in the experiment with Enterococcus faecalis [5], 1 µg/mL (≈ 0.69 µM). Also, the MIC in the experiment on Enterococcus faecalis [6] and in the experiment on Enterococcus faecium was greater than 64 µg/mL in each case.
